# Where a SMILES comes first, the peptide text is derived from it. The star is where a group is joined. FITC = O=C1OC2(c3ccc(O)cc3Oc3cc(O)ccc32)c2ccc(NC(=S)*)cc21
# Assays:
# KPNA7 ARM (minor) = KPNA7 ARM (minor) (Homo sapiens, UniProt A9QM74); experiment: FP saturation binding, KPNA7 ARM (minor); conditions: domain titrated to 10 nM FITC-peptide, 50 mM sodium phosphate pH 7.4, 0.05% Tween, quadratic fit, technical triplets, read-out: KD [µM] + SE
# KPNA4 ARM minor = KPNA4 ARM minor (Homo sapiens, UniProt O00629); experiment: FP saturation binding, KPNA4 ARM (minor); conditions: domain titrated to 10 nM FITC-peptide, 50 mM sodium phosphate pH 7.4, 0.05% Tween, quadratic fit, technical triplets, read-out: KD [µM] + SE
# GGA1 VHS [1] = target: T1, GGA1 VHS (Homo sapiens, UniProt Q9UJY5); experiment: GenVar_HD2 ProP-PD phage selection, GGA1 VHS; conditions: bait GGA1 VHS; from NGS counts of overlapping wild-type/mutant library peptide pairs; positive = mutation enhances, negative = disrupts binding
# T1 sequence (Q9UJY5 1-157): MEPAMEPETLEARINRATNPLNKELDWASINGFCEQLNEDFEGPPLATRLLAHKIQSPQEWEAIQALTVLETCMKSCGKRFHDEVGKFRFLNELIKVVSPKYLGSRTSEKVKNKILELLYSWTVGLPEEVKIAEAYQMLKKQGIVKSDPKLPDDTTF
# Description: (§1) Phage display screens were performed according to previous reports (Benz et al, [2022]; Ali et al, [2020]) and for four consecutive selection rounds with five to six replicates per bait protein domain against the […] library.
# (§2) On the first day, both bait (15 µg in 100 µL PBS) and control protein domains (GST and MBP; 10 µg in 100 µL PBS) were immobilised on a 96-well MaxiSorb plate (Nunc) overnight in the cold room while shaking. Additionally, a 10 mL culture of Omnimax E. coli bacteria supplemented with 10 µg/mL tetracycline was incubated overnight at 37 °C at 200 rpm.
# (§3) First, protein solutions were removed from both control and bait protein domain plates and the wells were blocked with 0.5% BSA in PBS (200 µL/well) for 1 h in the cold room while shaking. After that, three Omnimax E. coli cultures were started supplemented with either 30 µg/mL kanamycin, 100 µg/mL carbenicillin and 10 µg/mL tetracycline and incubated at 37 °C and 200 rpm. The two first cultures served as a means to check for helper phage contamination (kanamycin) and phages with library phagemid contamination (carbenicillin) of the culture used for elution of the phages during selections. The tetracycline Omnimax E. coli culture was grown until OD at 600 nm reached 0.6–0.8. […]
# Clathrin NTD = target: T2, Clathrin NTD (Homo sapiens, UniProt Q00610); experiment: FP saturation binding, Clathrin NTD; conditions: domain titrated to 10 nM FITC-peptide, 50 mM sodium phosphate pH 7.4, 0.05% Tween, quadratic fit, technical triplets, read-out: KD [µM] + SE
# T2 sequence (Q00610 1-364): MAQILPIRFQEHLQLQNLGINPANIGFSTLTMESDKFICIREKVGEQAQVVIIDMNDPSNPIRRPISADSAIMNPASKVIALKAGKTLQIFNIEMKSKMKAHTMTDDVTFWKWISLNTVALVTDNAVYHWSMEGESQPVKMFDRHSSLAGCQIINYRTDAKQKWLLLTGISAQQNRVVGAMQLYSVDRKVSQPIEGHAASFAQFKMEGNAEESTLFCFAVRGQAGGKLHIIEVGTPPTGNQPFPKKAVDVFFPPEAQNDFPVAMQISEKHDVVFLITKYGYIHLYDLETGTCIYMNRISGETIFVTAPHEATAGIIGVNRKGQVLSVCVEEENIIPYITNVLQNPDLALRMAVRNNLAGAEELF
# Description: (§4) In order to calculate the FP signal in millipolarisation (mP), the FITC-labelled peptides were excited at 485 nm and the emitted light was measured at 535 nm in two different angles. For saturation experiments, a dilution series of the respective protein domains was generated (25 µL) and 10 nM fluorescein isothiocyanate (FITC)-labelled peptide (diluted in 50 mM sodium phosphate buffer pH 7.4, 0.05% Tween) were added in an end volume of 50 µL. A control experiment titrating GST was performed for the binding of the NEDD4 WW2 domain, since the GST-tagged construct was used for affinity measurements. For fitting the data, the buffer-corrected reduced values were plotted in GraphPad PRISM against the respective protein concentration and the KD-values were obtained by fitting against the quadratic equation (Gianni et al, [2005]).
# ABL1 SH3 = ABL1 SH3 (Homo sapiens, UniProt P00519); experiment: FP saturation binding, ABL1 SH3; conditions: domain titrated to 10 nM FITC-peptide, 50 mM sodium phosphate pH 7.4, 0.05% Tween, quadratic fit, technical triplets, read-out: KD [µM] + SE
# CREBBP KIX = CREBBP KIX (Homo sapiens, UniProt Q92793); experiment: FP saturation binding, CREBBP KIX; conditions: domain titrated to 10 nM FITC-peptide, 50 mM sodium phosphate pH 7.4, 0.05% Tween, quadratic fit, technical triplets, read-out: KD [µM] + SE
# GGA1 VHS [2] = target: T1, GGA1 VHS; experiment: FP saturation binding, GGA1 VHS; conditions: domain titrated to 10 nM FITC-peptide, 50 mM sodium phosphate pH 7.4, 0.05% Tween, quadratic fit, technical triplets, read-out: KD [µM] + SE
# MAP1LC3A ATG8 [3] = target: T3, MAP1LC3A ATG8 (Homo sapiens, UniProt Q9H492); experiment: GenVar_HD2 ProP-PD phage selection, MAP1LC3A ATG8; conditions: bait MAP1LC3A ATG8; from NGS counts of overlapping wild-type/mutant library peptide pairs; positive = mutation enhances, negative = disrupts binding
# Description: as §1, §2, §3
# USP7 MATH/TRAF [4] = target: T4, USP7 MATH/TRAF (Homo sapiens, UniProt Q93009); experiment: GenVar_HD2 ProP-PD phage selection, USP7 MATH/TRAF; conditions: bait USP7 MATH/TRAF; from NGS counts of overlapping wild-type/mutant library peptide pairs; positive = mutation enhances, negative = disrupts binding
# Description: as §1, §2, §3
# USP7 MATH/TRAF [5] = target: T4, USP7 MATH/TRAF; experiment: FP displacement assay, USP7 MATH/TRAF; format: binding; conditions: read-out: KD-values [µM] + SEM
# Description: (§5) FP experiments were performed, as previously described (Kliche et al, [2021], [2023]), on an iD5 plate reader (Molecular devices) using black half-area non-binding 96-well plates (Corning). In order to calculate the FP signal in millipolarisation (mP), the FITC-labelled peptides were excited at 485 nm and the emitted light was measured at 535 nm in two different angles. For saturation experiments, a dilution series of the respective protein domains was generated (25 µL) and 10 nM fluorescein isothiocyanate (FITC)-labelled peptide (diluted in 50 mM sodium phosphate buffer pH 7.4, 0.05% Tween) were added in an end volume of 50 µL. […] For fitting the data, the buffer-corrected reduced values were plotted in GraphPad PRISM against the respective protein concentration and the KD-values were obtained by fitting against the quadratic equation (Gianni et al, [2005]).
# (§6) The buffer-corrected reduced values were subsequently plotted against the logarithmic unlabelled peptide concentration to derive the IC50 values by using the sigmoidal dose-response (x is logarithmic) fit in GraphPad PRISM and calculate the KD values as described previously (Nikolovska-Coleska et al, [2004]).
# MAP1LC3A ATG8 [6] = target: T3, MAP1LC3A ATG8; experiment: FP displacement assay, MAP1LC3A ATG8; format: binding; conditions: read-out: KD-values [µM] + SEM
# Description: as §5, §6
# NEDD4 WW2 = NEDD4 WW2 (Homo sapiens, UniProt P46934); experiment: FP saturation binding, NEDD4 WW2; conditions: GST-tagged construct, domain titrated to 10 nM FITC-peptide, 50 mM sodium phosphate pH 7.4, 0.05% Tween, quadratic fit, technical triplets, read-out: KD [µM] + SE
# Description: as §4
# USP7 MATH/TRAF [7] = target: T4, USP7 MATH/TRAF; experiment: FP saturation binding, USP7 MATH/TRAF; conditions: domain titrated to 10 nM FITC-peptide, 50 mM sodium phosphate pH 7.4, 0.05% Tween, quadratic fit, technical triplets, read-out: KD [µM] + SE
# GABARAPL1 ATG8 = GABARAPL1 ATG8 (Homo sapiens, UniProt Q9H0R8); experiment: FP saturation binding, GABARAPL1 ATG8; conditions: domain titrated to 10 nM FITC-peptide, 50 mM sodium phosphate pH 7.4, 0.05% Tween, quadratic fit, technical triplets, read-out: KD [µM] + SE
# Chain of GABARAPL1 ATG8 (Q9H0R8 2-115): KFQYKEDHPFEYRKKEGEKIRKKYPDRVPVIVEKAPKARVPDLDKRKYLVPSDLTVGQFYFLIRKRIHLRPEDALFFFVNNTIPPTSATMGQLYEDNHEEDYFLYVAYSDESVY
# T4 sequence (Q93009 53-206): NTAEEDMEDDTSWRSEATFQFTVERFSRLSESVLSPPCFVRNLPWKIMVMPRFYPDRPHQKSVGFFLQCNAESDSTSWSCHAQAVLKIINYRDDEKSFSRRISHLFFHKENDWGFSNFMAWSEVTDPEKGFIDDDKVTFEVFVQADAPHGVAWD
# Chain of KPNA7 ARM (minor) (A9QM74 58-488 limits assumed): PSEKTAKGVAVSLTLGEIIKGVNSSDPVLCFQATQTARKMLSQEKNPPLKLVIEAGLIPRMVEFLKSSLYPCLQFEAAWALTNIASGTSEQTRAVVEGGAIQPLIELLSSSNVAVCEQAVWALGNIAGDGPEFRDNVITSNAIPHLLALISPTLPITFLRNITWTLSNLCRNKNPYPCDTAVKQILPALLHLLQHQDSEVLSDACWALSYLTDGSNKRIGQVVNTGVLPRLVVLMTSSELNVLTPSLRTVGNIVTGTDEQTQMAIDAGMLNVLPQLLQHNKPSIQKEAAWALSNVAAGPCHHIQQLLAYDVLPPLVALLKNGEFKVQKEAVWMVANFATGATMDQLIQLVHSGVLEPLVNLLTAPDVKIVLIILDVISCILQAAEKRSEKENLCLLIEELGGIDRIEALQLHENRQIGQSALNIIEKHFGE
# Chain of ABL1 SH3 (P00519 60-121): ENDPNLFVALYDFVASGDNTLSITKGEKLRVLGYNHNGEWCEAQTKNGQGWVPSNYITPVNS
# Chain of KPNA4 ARM minor (O00629 68-487): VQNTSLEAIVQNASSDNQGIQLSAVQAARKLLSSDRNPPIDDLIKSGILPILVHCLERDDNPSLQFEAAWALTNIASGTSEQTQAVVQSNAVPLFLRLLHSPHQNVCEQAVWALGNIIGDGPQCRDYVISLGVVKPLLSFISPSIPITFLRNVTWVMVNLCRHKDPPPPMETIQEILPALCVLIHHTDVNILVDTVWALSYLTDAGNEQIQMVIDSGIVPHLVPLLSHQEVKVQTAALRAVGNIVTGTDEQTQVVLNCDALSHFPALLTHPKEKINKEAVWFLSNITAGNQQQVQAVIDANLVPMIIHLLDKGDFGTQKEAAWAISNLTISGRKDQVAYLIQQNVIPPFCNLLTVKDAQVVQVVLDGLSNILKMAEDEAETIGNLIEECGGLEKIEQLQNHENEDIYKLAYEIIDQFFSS
# Chain of CREBBP KIX (Q92793 587-673): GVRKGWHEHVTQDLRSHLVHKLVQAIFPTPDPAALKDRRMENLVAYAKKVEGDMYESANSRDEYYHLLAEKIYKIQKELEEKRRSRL
# Chain of NEDD4 WW2 (P46934 765-803 limits assumed): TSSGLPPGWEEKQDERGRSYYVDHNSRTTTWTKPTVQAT
molecule,measurement,setting,value
CC[C@H](C)[C@H](NC(=O)[C@H](C)NC(=O)[C@H](CCCNC(=N)N)NC(=O)CNC(=O)[C@@H](NC(=O)[C@H](CCCNC(=N)N)NC(=O)CNC(=O)[C@H](CCC(=O)O)NC(=O)[C@H](CCSC)NC(=O)[C@H](CCSC)NC(=O)[C@H](CC(=O)O)NC(=O)[C@H](Cc1ccc(O)cc1)NC(=O)[C@@H](NC(=O)[C@H](CCCNC(=N)N)NC(=O)[C@H](CCCCN)NC(=O)[C@@H]1CCCN1C(=S)Nc1ccc2c(c1)C(=O)OC21c2ccc(O)cc2Oc2cc(O)ccc21)[C@@H](C)O)C(C)C)C(N)=O [FITC-NCOR2] ({FITC}-PKRTYDMMEGRVGRAI-NH2),Kd,KPNA7 ARM (minor),57 ± 9 µM
same,Kd,KPNA4 ARM minor,0.03 ± 0.002 µM
Ac-YQQELDHLLVDLDHQR-NH2 [MYH9_1419-1433 D1424H],Mutation enrichment score,GGA1 VHS [1],−10
CC[C@H](C)[C@H](NC(=O)[C@H](CC(C)C)NC(=O)[C@H](CC(=O)O)NC(=O)[C@@H](NC(=O)[C@H](CO)NC(=S)Nc1ccc2c(c1)C(=O)OC21c2ccc(O)cc2Oc2cc(O)ccc21)C(C)C)C(=O)N[C@H](C(=O)N[C@@H](Cc1ccccc1)C(=O)N[C@@H](CC(=O)O)C(=O)N[C@@H](CO)C(=O)N[C@H](C(N)=O)C(C)C)[C@@H](C)O [FITC-NSP3] ({FITC}-SVDLITFDSV-NH2),Kd,Clathrin NTD,21 ± 3 µM
CC(C)[C@H](NC(=O)[C@@H]1CCCN1C(=O)[C@@H]1CCCN1C(=O)[C@@H]1CCCN1C(=O)[C@@H]1CCCN1C(=O)[C@H](Cc1ccc(O)cc1)NC(=O)[C@H](C)NC(=O)[C@@H]1CCCN1C(=O)[C@@H]1CCCN1C(=O)[C@H](Cc1c[nH]cn1)NC(=S)Nc1ccc2c(c1)C(=O)OC21c2ccc(O)cc2Oc2cc(O)ccc21)C(=O)N1CCC[C@H]1C(=O)N[C@H](C(N)=O)[C@@H](C)O [FITC-3BP2] ({FITC}-HPPAYPPPPVPT-NH2),Kd,ABL1 SH3,3.7 ± 0.4 µM
CC(C)C[C@H](NC(=O)[C@H](CC(C)C)NC(=O)[C@H](CC(=O)O)NC(=O)[C@H](CO)NC(=O)[C@H](CC(C)C)NC(=O)[C@H](CCC(=O)O)NC(=O)[C@H](CCCCN)NC(=O)[C@H](CC(=O)O)NC(=S)Nc1ccc2c(c1)C(=O)OC21c2ccc(O)cc2Oc2cc(O)ccc21)C(=O)N[C@@H](CC(=O)O)C(=O)N[C@@H](Cc1ccccc1)C(=O)N[C@@H](CO)C(N)=O [FITC-TCF3] ({FITC}-DKELSDLLDFS-NH2),Kd,CREBBP KIX,35 ± 4 µM
CC[C@H](C)[C@H](NC(=O)[C@H](CC(=O)O)NC(=O)[C@H](CC(C)C)NC(=O)[C@H](CC(C)C)NC(=O)[C@H](CC(=O)O)NC(=O)[C@H](CCC(=O)O)NC(=O)[C@H](CC(=O)O)NC(=O)[C@H](CCC(=O)O)NC(=O)[C@H](CC(=O)O)NC(=S)Nc1ccc2c(c1)C(=O)OC21c2ccc(O)cc2Oc2cc(O)ccc21)C(=O)N[C@@H](CCC(=O)O)C(=O)N[C@@H](CC(=O)O)C(N)=O [FITC-STK11_mut] ({FITC}-DEDEDLLDIED-NH2),Kd,GGA1 VHS [2],14.1 ± 0.7 µM
Ac-QTKWEPLQQVDTSTRT-NH2 [KRT1_209-224 L214P],Mutation enrichment score,MAP1LC3A ATG8 [3],−6
Ac-YISSSSTSTMPNSSKSS-NH2 [CHK2_38-53 Q51K],Mutation enrichment score,USP7 MATH/TRAF [4],−6
same,Kd,USP7 MATH/TRAF [5],4.7 ± 0.3 µM
Ac-QTKWELLQQVDTSTRT-NH2 [KRT1_209-224 wild-type],Kd,MAP1LC3A ATG8 [6],55 ± 5 µM
C[C@H](NC(=O)[C@H](CO)NC(=O)[C@H](Cc1ccc(O)cc1)NC(=O)[C@@H]1CCCN1C(=O)[C@@H]1CCCN1C(=O)[C@@H]1CCCN1C(=O)[C@H](CO)NC(=O)[C@H](CC(=O)O)NC(=O)[C@@H](NC(=S)Nc1ccc2c(c1)C(=O)OC21c2ccc(O)cc2Oc2cc(O)ccc21)[C@@H](C)O)C(=O)NCC(=O)O [FITC-UL56(HHV-2)] ({FITC}-TDSPPPYSAG-OH),Kd,NEDD4 WW2,4.1 ± 0.3 µM
CC[C@H](C)[C@H](NC(=O)[C@H](CO)NC(=O)[C@H](CO)NC(=O)[C@H](CO)NC(=O)[C@@H](NC(=O)[C@H](CO)NC(=O)[C@@H]1CCCN1C(=O)[C@H](CCC(N)=O)NC(=O)[C@H](CO)NC(=O)[C@H](Cc1ccc(O)cc1)NC(=O)[C@H](CC(=O)O)NC(=S)Nc1ccc2c(c1)C(=O)OC21c2ccc(O)cc2Oc2cc(O)ccc21)[C@@H](C)O)C(=O)N[C@H](C(=O)N[C@@H](Cc1ccc(O)cc1)C(=O)O)[C@@H](C)CC [FITC-MDM2] ({FITC}-DYSQPSTSSSIIY-OH),Kd,USP7 MATH/TRAF [7],0.5 ± 0.03 µM
CC(C)C[C@H](NC(=O)[C@H](Cc1c[nH]cn1)NC(=O)[C@@H](NC(=O)[C@H](Cc1c[nH]c2ccccc12)NC(=O)[C@H](CC(=O)O)NC(=O)[C@H](CC(=O)O)NC(=O)[C@H](CC(=O)O)NC(=S)Nc1ccc2c(c1)C(=O)OC21c2ccc(O)cc2Oc2cc(O)ccc21)[C@@H](C)O)C(=O)N[C@@H](CO)C(=O)N[C@@H](CO)C(=O)N[C@@H](CCCCN)C(N)=O [FITC-SQSTM1],Kd,GABARAPL1 ATG8,3.7 ± 0.4 µM

# Source: PMC11369174, “Proteome-scale characterisation of motif-based interactome rewiring by disease mutations” (Molecular Systems Biology, 2024)
